One substance from patent EP0189971A2, “Composition containing a thiadiazole derivative and method for treating plants against bacteria” (PALIMPORT LTD., priority 1985, dated 1986) can be followed below.

Assay [1] relates to Pseudomonas tomato. The note with it: cupric acetate 0.1 %. As for the experimental part: In all trials, seed disinfection was carried out by dipping the seeds in different chemical solutions. The variable factors were: • 1. Different times of dipping: 10, 20, 30 and 60 minutes. • 2.. Different temperatures of dipping: room temperature (20°C), and a higher temperature (45°C).
(§1) In this method, the efficacy of the disinfection is examined by a bioassay. After seed disinfection, the seeds are dried and sown in the soil, and kept in a humid cell with suitable temperature. The efficacy of the treatment is determined by the level of infestation in the seedlings.
In tomatoes, disinfection trials were carried out against two bacterial diseases. Most of the work was done in order to examine the efficacy of the mixtures in controlling bacterial specic of tomato caused by Pseudomonas tomato. Later on some trials were carried out against a relatively new disease in Israel - "rotten pith" caused by P. coruoata. Trial 7
Also, different dipping times and temperatures were checked. Efficacy of disinfection was evaluated by assessing the disease appearance in the seedlings which was caused by infection of the treated seeds.

Another assay concerns X. campestris. The settings on record: for Percent of infected seedlings: cupric acetate 0.1 %. As for the experimental part: as §1
Trials were carried out in seeds of cabbage and cauliflower infested with Xanthomonas camoestris. […] Seeds were dipped in all treatments for 10 to 20 minutes at temperatures of 25°C and 45°C.
The efficacy of the disinfection process was checked in a bio assay system.

Another assay has as its system X. translucens. The note with it: for Bacteria per gr. seeds: cupric acetate 0.1%, infected seeds. As for the experimental part:
In this method, live bacterial pathogens that survived the seed disinfection, were counted. Treated seeds were dried by vaporization. Five grams of dried seeds from each treatment were ground in a grinder of 20 mesh and transferred to a solution containing 0.1% agar in water and were shaken for 30 minutes. From each sample, 10x dilutions were prepared. From each of the various dilutions, 0.1 ml was taken and placed in a suitable medium in a petri-dish, with a Drigalski stick. After 4 days of incubation at temperature of 27°C, colonies of the bacterial pathogens were counted in each petri-dish.
The assessment of efficacy was carried out by counting of the number of bacteria that remained alive in the seeds after the disinfection and in a bio-assay system. (See Materials and Methods).
In this trial the efficacy of the products in disinfecting wheat seeds was tested at various periods of time from 5 to 60 minutes. Disinfected seeds were compared with seeds treated with water (check) and with seeds that were defined in laboratory as seeds clean from the pathogen. Efficacy of the treatments was measured by counting the amount of bacteria that remained alive in the seeds. The trial was carried out in five replicates.

For assay [2], the system named is Pseudomonas tomato. As to the kind of experiment: Preventative foliage spraying of tomato seedlings in greenhouse. Type of assay: in vivo. The settings on record: for Average level of ill seedlings: Cupric acetate 0.15 %, levels 0-5. As for the experimental part:
The trials were carried out against bacterial diseases in the following crops: • a. In pepper - Bacterial spot of pepper (Xanthomonas vesicatoria). • b. In tomatoes - Bacterial specic of tomato (Pseudomonas tomato). • c. In cauliflower - Black rot (Xanthomonas camoestris). • 2. […].
In trials that were carried out in the greenhouse, plants at age of 3 - 5 leaves that were grown in "speedling system", were used. Plants were allowed to grow in the original trays without contact between them.
About 48 hours before the infection, the bacterial pathogen was transferred (for multiplication) to a suitable growth medium (see materials and methods of para I hereinbefore)at optimal temperature until all the medium was covered by bacteria. Then a suspension of bacteria at concentration of 1 x 10' - […] per cm^2 was prepared. The bacterial suspension was sprayed to runoff with a hand sprayer on to the leaves of the test plants. Spraying was made on dry leaves with the addition of carborundum to the spray solution in order to ensure better infection. In trials where the efficacy of the treatments was evaluated in preventative treatments, the application was given a few hours before the bacterial infection.
In the preventative treatments, the products were applied a few hours before the bacterial infection. In the curative treatments, the application was carried out 20 hours after bacterial infection. After application, when plants dried out they were transferred to a fog chamber with controlled conditions.
In trials that were carried out in the greenhouse, the plants were transferred after the application and infection, to control conditions of fogginess and suitable temperatures for bactena, till the end of the trial.
Infection was evaluated in the seedlings according to the following key: 0 = healthy seedling, without symptoms of disease, 5 = complete coverage of the seedling with spots of disease, or dead seedling. The intermediate degrees were given according to the severity of the disease in the leaves.
In tomatoes, several trials were carried out in greenhouse under conditions of fog chamber and artificial infection in order to evaluate the efficacy of Terrazole (trade mark) and copper, in different rates and combinations, in preventing and controlling bacterial diseases specic of tomato caused by Pseudomonastomato.
In one trial, various treatments were examined in prevention of disease, as appears in Table IX.

For assay [3], the system named is Pseudomonas tomato, Xanthomonasvesicatoria, X. translucens, X. camoestris. The note with it: 0.8% cupric acetate in aqueous solution; each of the four species.
Protocol: G. Evaluation of product activity by direct contact with the bacteria: • The efficacy of a number of products by a direct contact with the bacteria was checked as follows: Preparation of solutions of different concentrations of the examined products. Soaked bacteria suspension in the solutions for a period of 10 minutes. Filtration of the solution containing bacteria through milipore disc, so that the bacteria are concentrated on the disc. Rinsing the disc with distilled water. Placing the disc in a measured amount of water with 0.1 % agar, and shaking the disc in this solution in order to transfer the bacteria from the disc to the solution. Making 10x dilutions and direct placing on suitable medium (see section F1 above).
In this trial, 11 concentrations of cupric-acetate in aqueous solution were checked, from 0.001 - 0.8% by weight. […] All treatments were checked against the four species of bacteria mentioned.

Where two headings read alike, the source gives them in different places.

With cupric acetate, the “% Infected plants” value was found to be 28.0% with Pseudomonas tomato [1] (dipping 10 minutes, 25 °C); 17.0% in the assay with Pseudomonas tomato [1] (dipping 10 minutes, 40 °C); 27.5% with Pseudomonas tomato [1] (dipping 20 minutes, 25 °C); 14.0% in the assay with Pseudomonas tomato [1] (dipping 20 minutes, 40 °C). In addition, the “Improvement in control, in comparison with the untreated control” value with Pseudomonas tomato [1] (dipping 10 minutes, 25 °C) is reported as 37.8; with Pseudomonas tomato [1] (dipping 10 minutes, 40 °C), 62.2; with Pseudomonas tomato [1] (dipping 20 minutes, 25 °C), 38.9; with Pseudomonas tomato [1] (dipping 20 minutes, 40 °C), 68.9. Moreover, the “Percent of infected seedlings” value with X. campestris (25 °C 10 min.) stood at 78.6%; in the assay on X. campestris (25 °C 20 min.), 56.0%; with X. campestris (40 °C 10 min.), 45.0%; with X. campestris (40 °C 20 min.), 35.0%. Moreover, in the assay with X. campestris (cupric acetate, at any of the trial conditions), the disease control is given as at most 38%. Also, the figures for the “Bacteria per gr. seeds” value in the assay on X. translucens (5 minutes), in the assay with X. translucens (10 minutes) and with X. translucens (20 minutes) were 6040 b per gr. seeds, 2920 b per gr. seeds and 496 b per gr. seeds, respectively. The “control in comparison with the untreated seeds” value in the assay on X. translucens (cupric acetate, dipping 20 minutes) was 94%. Also, in the assay with Pseudomonas tomato [2] (Cupric acetate 0.1 %, preventative spraying, ten days after the infection), the “Percent of ill seedlings” value is 34.2%. Besides, the “Average level of ill seedlings” value stood at 0.30 in the assay on Pseudomonas tomato [2] (9 days after infection), 1.85 in the assay on Pseudomonas tomato [2] (11 days after infection) and 2.80 in the assay on Pseudomonas tomato [2] (13 days after infection). The bacteria remained alive entry in assay [3] is “about 10^3 bacteria per cm^2 of water”.
